From patent US10676446B2, “Bicyclic quinazolinone derivatives” (Hoffmann-La Roche Inc., priority 2015, dated 2020) come the findings set out here.

The target of the assay is human ATX (autotaxin, ENPP2), His-tagged (Homo sapiens (Human), UniProt Q13822). The experiment in a line: Human ATX enzyme inhibition assay (fluorescence quenching, MR121 substrate). The format is biochemical. The settings on record: 30 nM ATX, 1 μM MR121 substrate, 30° C., pH 8.0. How it is done:
Human ATX Enzyme Inhibition Assay
ATX inhibition was measured by a fluorescence quenching assay using a specifically labeled substrate analogue (MR121 substrate). To obtain this MR121 substrate, BOC and TBS protected 6-amino-hexanoic acid (R)-3-({2-[3-(2-{2-[2-(2-amino-ethoxy)-ethoxy]-ethoxy}-ethoxy)-propionylamino]-ethoxy}-hydroxy-phosphoryloxy)-2-hydroxy-propyl ester (Ferguson et al., Org. Lett. 2006, 8, 2023) was labeled with MR121 fluorophore [CAS RN 185308-24-1], 1-(3-carboxypropyl)-11-ethyl-1,2,3,4,8,9,10,11-octahydro-dipyrido[3,2-b:2′,3′-i]phenoxazin-13-ium) on the free amine of the ethanolamine side and then, after deprotection, subsequently with tryptophan on the side of the aminohexanoic acid.
Assay working solutions were made as follows:
Assay buffer (50 mM Tris-HCl, 140 mM NaCl, 5 mM KCl, 1 mM CaCl2, 1 mM MgCl2, 0.01% Triton-X-100, pH 8.0;
ATX solution: ATX (human His-tagged) stock solution (1.08 mg/mL in 20 mM bicine, pH 8.5, 0.15 M NaCl, 10% glycerol, 0.3% CHAPS, 0.02% NaN3), diluted to 1.4-2.5× final concentration in assay buffer;
MR121 substrate solution: MR121 substrate stock solution (800 μM MR121 substrate in DMSO), diluted to 2-5× final concentration in assay buffer.
Test compounds (10 mM stock in DMSO, 8 μL) were obtained in 384 well sample plates (Corning Costar #3655) and diluted with 8 μL DMSO. Row-wise serial dilutions were made by transferring 8 μL cpd solution to the next row up to row O. The compound and control solutions were mixed five times and 2 μL were transferred to 384 well assay plates (Corning Costar #3702). Then, 15 μL of 41.7 nM ATX solution was added (30 nM final concentration), mixed five times and then incubated for 15 minutes at 30° C. 10 μL of MR121 substrate solution was added (1 μM final concentration), mixed 30 times and then incubated for 15 minutes at 30° C.
As a reminder, the IC50 is the concentration needed to halve the response being measured. `CNC(=O)C[C@@H](NC(=O)Cn1cnc2ccc(N3CCN(C(C)=O)CC3)cc2c1=O)c1ccc(Cl)cc1` [Example 1, (3R)-3-[[2-[6-(4-Acetylpiperazin-1-yl)-4-oxoquinazolin-3-yl]acetyl]amino]-3-(4-chlorophenyl)-N-methylpropanamide] had a 50% inhibitory concentration (IC50) of 0.269 µM. On to `CC(=O)N1CCN(c2ccc3ncn(CC(=O)NC(CC(=O)N(C)C)c4ccc(Cl)cc4)c(=O)c3c2)CC1` (stereo not shown) [Example 2], for which the IC50 is 0.36 µM. To `CC(=O)N1CCN(c2ccc3ncn(CC(=O)NC(CC(=O)Nc4ccccc4)c4ccc(Cl)cc4)c(=O)c3c2)CC1` (stereo not shown) [Example 3] belongs 0.198 µM; to `CNC(=O)CC(NC(=O)Cn1cnc2ccc(N3CCN(C(C)=O)CC3)cc2c1=O)c1ccc(C(F)(F)F)cc1` (stereo not shown) [Example 4], 0.17 µM. As for `CC(=O)N1CCN(c2ccc3ncn(CC(=O)NC(CC(=O)N(C)C)c4ccc(C(F)(F)F)cc4)c(=O)c3c2)CC1` (stereo not shown) [Example 5], the half-maximal inhibitory concentration (IC50) came out at 0.121 µM.

Take `CC(=O)N1CCN(c2ccc3ncn(CC(=O)NC(CC(=O)NCC(C)C)c4ccc(C(F)(F)F)cc4)c(=O)c3c2)CC1` (stereo not shown) [Example 6]: the IC50 stood at 0.979 µM. Molecule `CC(=O)N1CCN(c2ccc3ncn(CC(=O)NC(CC(=O)Nc4ccccc4)c4ccc(C(F)(F)F)cc4)c(=O)c3c2)CC1` (stereo not shown) [Example 7] registered a concentration for half-maximal inhibition (IC50) of 0.084 µM.

Take `CC(=O)N1CCN(c2ccc3ncn(CC(=O)NC(CC(=O)NCc4ccccc4)c4ccc(C(F)(F)F)cc4)c(=O)c3c2)CC1` (stereo not shown) [Example 8]: the IC50 stood at 0.279 µM. `CNC(=O)C[C@@H](NC(=O)Cn1cnc2ccc(N3CCN(C(C)=O)CC3)cc2c1=O)c1ccc([N+](=O)[O-])cc1` [Example 9, (3R)-3-[[2-[6-(4-Acetylpiperazin-1-yl)-4-oxoquinazolin-3-yl]acetyl]amino]-N-methyl-3-(4-nitrophenyl)propanamide] returned an IC50 of 0.054 µM. As to `CC(=O)N1CCN(c2ccc3ncn(CC(=O)NCc4ccc(Cl)cc4)c(=O)c3c2)CC1` [Example 10, 2-[6-(4-Acetylpiperazin-1-yl)-4-oxoquinazolin-3-yl]-N-[(4-chlorophenyl)methyl]acetamide], the IC50 amounted to 0.096 µM. To `CC(=O)N1CCN(c2ccc3ncn(CC(=O)NCc4ccc(Cl)nc4)c(=O)c3c2)CC1` [Example 11] belongs 0.119 µM. Take `CC(=O)N1CCN(c2ccc3ncn(CC(=O)NCc4ccc(Cl)cn4)c(=O)c3c2)CC1` [Example 12]: the IC50 amounted to 0.148 µM.

With `CC(=O)N1CCN(c2ccc3ncn(CC(=O)NC(C)c4ccc(Cl)cc4)c(=O)c3c2)CC1` (stereo not shown) [Example 13], the IC50 was found to be 0.478 µM. To `CC(=O)N1CCN(c2ccc3ncn(CC(=O)NCc4ccc(F)cc4)c(=O)c3c2)CC1` [Example 14] belongs 1.47 µM; to `CC(=O)N1CCN(c2ccc3ncn(CC(=O)NCc4ccc5c(c4)OCO5)c(=O)c3c2)CC1` [Example 15], 0.415 µM; to `CC(=O)N1CCN(c2ccc3ncn(CC(=O)NCc4ccc(C(F)(F)F)nc4)c(=O)c3c2)CC1` [Example 16], 0.207 µM. The molecule `CC(=O)N1CCN(c2ccc3ncn(CC(=O)NCc4ccc(C(F)(F)F)cc4)c(=O)c3c2)CC1` [Example 17] yielded an IC50 of 0.137 µM. Regarding `CC(=O)N1CCN(c2ccc3ncn(CC(=O)NCc4ccc(C#N)nc4)c(=O)c3c2)CC1` [Example 18], the midpoint of inhibition, the IC50, lay at 0.014 µM. To `CC(=O)N1CCN(c2ccc3ncn(CC(=O)NCc4ccc(C#N)cc4)c(=O)c3c2)CC1` [Example 19] belongs 0.13 µM; to `CC(=O)N1CCN(c2ccc3ncn(CC(=O)NCc4ccc(OC(F)(F)F)cc4)c(=O)c3c2)CC1` [Example 20], 0.005 µM; to `CC(=O)N1CCN(c2ccc3ncn(CC(=O)NCc4ccc([N+](=O)[O-])cc4)c(=O)c3c2)CC1` [Example 21], 0.052 µM.

`CC(=O)N1CCN(c2ccc3ncn(CC(=O)NCc4ccc(Cl)c(Cl)c4)c(=O)c3c2)CC1` [Example 22] showed an IC50 of 0.091 µM.

In turn, `CC(=O)N1CCN(c2ccc3ncn(CC(=O)NCc4ccc(Cl)cc4Cl)c(=O)c3c2)CC1` [Example 23] yielded an IC50 of 0.072 µM.

Turning to `CC(=O)N1CCN(c2ccc3ncn(CC(=O)NCc4ccc(Cl)c(F)c4)c(=O)c3c2)CC1` [Example 24], the IC50 was determined as 0.033 µM. `CC(=O)N1CCN(c2ccc3ncn(CC(=O)NCc4ccc(C#N)c(Cl)c4)c(=O)c3c2)CC1` [Example 25] showed an IC50 of 0.016 µM. To `CC(=O)N1CCN(c2ccc3ncn(CC(=O)NCc4ccc(F)c(OC(F)(F)F)c4)c(=O)c3c2)CC1` [Example 26] belongs 0.051 µM; to `CC(=O)N1CCN(c2ccc3ncn(CC(=O)N[C@H](CC(N)=O)c4ccc(Cl)cc4)c(=O)c3c2)CC1` [Example 27], 0.34 µM. On to `CC(=O)N1CCN(c2ccc3ncn(CC(=O)NCc4ccc(C#N)c(F)c4)c(=O)c3c2)CC1` [Example 28, 2-[6-(4-Acetylpiperazin-1-yl)-4-oxoquinazolin-3-yl]-N-[(4-cyano-3-fluorophenyl)methyl]acetamide], for which half-maximal inhibition (IC50) required 0.027 µM. To `CC(=O)N1CCN(c2ccc3ncn(CC(=O)NCc4ccc(C#N)cc4Cl)c(=O)c3c2)CC1` [Example 29] belongs 0.175 µM. In turn, `CC(=O)N1CCN(c2ccc3ncn(CC(=O)NCc4ccc(C#N)cc4F)c(=O)c3c2)CC1` [Example 30] displayed a half-maximal inhibitory concentration (IC50) of 0.139 µM.

As for `CC(=O)N1CCN(c2ccc3ncn(CC(=O)NCc4c(F)cc(C#N)cc4F)c(=O)c3c2)CC1` [Example 31], the IC50 was 0.331 µM.

With `COc1cc(C#N)ccc1CNC(=O)Cn1cnc2ccc(N3CCN(C(C)=O)CC3)cc2c1=O` [Example 32], the 50% inhibitory concentration (IC50) was determined as 0.089 µM. The molecule `CC(=O)N1CCN(c2ccc3ncn(CC(=O)NCc4ccc(C#N)cc4OCC(F)(F)F)c(=O)c3c2)CC1` [Example 33] returned a 50% inhibitory concentration (IC50) of 0.245 µM.

The molecule `CC(=O)N1CCN(c2ccc3ncn(CC(=O)NCc4ccc(Cl)c(C(F)(F)F)c4)c(=O)c3c2)CC1` [Example 34] registered an IC50 of 0.024 µM. Molecule `CC(=O)N1CCN(c2ccc3ncn(CC(=O)NCc4cccc(C#N)c4C)c(=O)c3c2)CC1` [Example 35] yielded an IC50 of 0.071 µM. As for `CC(=O)N1CCN(c2ccc3ncn(CC(=O)NCc4ccnc(Cl)c4)c(=O)c3c2)CC1` [Example 36], the half-inhibitory concentration (IC50) was 0.346 µM. To `CC(=O)N1CCN(c2ccc3ncn(CC(=O)NCc4cccc([N+](=O)[O-])c4)c(=O)c3c2)CC1` [Example 37] belongs 0.073 µM. To `CC(=O)N1CCN(c2ccc3ncn(CC(=O)NCc4ccc(Cl)c(OC(F)(F)F)c4)c(=O)c3c2)CC1` [Example 38] belongs 0.004 µM; to `CC(=O)N1CCN(c2ccc3ncn(CC(=O)NCc4ccc(S(F)(F)(F)(F)F)cc4)c(=O)c3c2)CC1` [Example 39], 0.012 µM. To `CC(=O)N1CCN(c2ccc3ncn(CC(=O)NCc4ccc(S(C)(=O)=O)c(C)c4)c(=O)c3c2)CC1` [Example 40] belongs 1.56 µM; to `CC(=O)N1CCN(c2ccc3ncn(CC(=O)NCc4cc(Cl)c(Cl)cn4)c(=O)c3c2)CC1` [Example 41], 0.021 µM; to `CC(=O)N1CCN(c2ccc3ncn(CC(=O)NCc4ccc(C)c(Cl)c4)c(=O)c3c2)CC1` [Example 42], 0.14 µM. The molecule `CC(=O)N1CCN(c2ccc3ncn(CC(=O)N(C)Cc4ccc(Cl)cc4)c(=O)c3c2)CC1` [Example 43] came in with an IC50 of 0.112 µM.

For `CC(=O)N1CCN(c2ccc3ncn(CC(=O)N(C)Cc4ccc(Cl)c(Cl)c4)c(=O)c3c2)CC1` [Example 44], inhibition was half-maximal at 0.017 µM (IC50). To `CC(=O)N1CCN(c2ccc3ncn(CC(=O)N(C)Cc4ccc(C#N)c(F)c4)c(=O)c3c2)CC1` [Example 45] belongs 0.038 µM; to `CC(=O)N1CCN(c2ccc3ncn(CC(=O)N(C)Cc4cc(Cl)nc(Cl)c4)c(=O)c3c2)CC1` [Example 46], 0.184 µM.

The molecule `CC(=O)N1CCN(c2ccc3ncn(CC(=O)N4CCCC4c4ccc(Cl)cc4)c(=O)c3c2)CC1` (stereo not shown) [Example 47] had a half-inhibitory concentration (IC50) of 0.341 µM.

`CC(=O)N1CCN(c2ccc3ncn(CC(=O)N4CCC[C@@H]4c4ccc(C)cc4)c(=O)c3c2)CC1` [Example 48] displayed an IC50 of 1.58 µM. To `CC(=O)N1CCN(c2ccc3ncn(CC(=O)NCCc4ccc(Cl)c(Cl)c4)c(=O)c3c2)CC1` [Example 49] belongs 0.179 µM; to `CC(=O)N1CCN(c2ccc3ncn(CC(=O)NCc4cc(-c5ccc(Cl)cc5)no4)c(=O)c3c2)CC1` [Example 50], 0.456 µM. Molecule `CC(=O)N1CCN(c2ccc3ncn(CC(=O)NCc4noc(-c5ccc(Cl)cc5)n4)c(=O)c3c2)CC1` [Example 51] had a half-maximal inhibitory concentration (IC50) of 0.051 µM. In turn, `CNC(=O)CC(NC(=O)Cn1cnc2ccc(N3CCN(C(C)=O)CC3)cc2c1=O)c1ccc(Cl)c(Cl)c1` (stereo not shown) [Example 52, 3-[[2-[6-(4-Acetylpiperazin-1-yl)-4-oxoquinazolin-3-yl]acetyl]amino]-3-(3,4-dichlorophenyl)-N-methylpropanamide] yielded a 50% inhibitory concentration (IC50) of 0.072 µM.
